According to patent US20230212549A1, “COMPOUNDS COMPRISING A […] LIGAND AND USE THEREOF” (priority 2021, published 2023):
Numbered stars: 1 amine (or outer) side, 2 acyl side, 3 side chain; on linkers, the order of the positions; unused ones are H or OH. Bridge positions count the residues as written; N and C are the ends. Square brackets hold non-standard residues; d marks the D form. Peptide text beside a SMILES is read from it. * marks the point of attachment. X35 = CC1(C)C(=CC=CC=CC2=[N+](CCCCS(=O)(=O)[O-])c3ccccc3C2(C)C)N(CCCCCC(=O)N2CCN(Cc3cc(C[*:1])cc(C[*:2])c3)CC2)c2ccccc21; X12 = O=C(O)CN1CCN(CC(=O)O)CCN(CC(=O)NCCCOCCOCCOCCCN*)CCN(CC(=O)O)CC1; NH(1-deoxy-D-glucityl) = OC[C@@H](O)[C@@H](O)[C@H](O)[C@@H](O)CN*; DOTA = O=C(O)CN1CCN(CC(=O)O)CCN(CC(=O)*)CCN(CC(=O)O)CC1; X3 = NCCNCC(CNCCN)C(=O)NCCCOCCOCCOCCCN*; Phe(2-Cl) = N[C@@H](Cc1ccccc1Cl)C(=O)O; Pro(4,4-F2) = O=C(O)[C@@H]1CC(F)(F)CN1; mXylylene = c1cc(C[*:1])cc(C[*:2])c1; PEG6 = NCCOCCOCCOCCOCCOCCOCCC(=O)O; Hyp = O=C(O)[C@@H]1C[C@@H](O)CN1; NMeF = CN[C@@H](Cc1ccccc1)C(=O)O; X29 = O=C(CN1CCN([*:1])CC1)[*:2]; Suc = O=C(CCC(=O)[*:2])[*:1]; Nle = CCCC[C@H](N)C(=O)O; X2 = NCCNCC(CNCCN)C(=O)*; Hexanoyl = CCCCCC(=O)*; AEEA = NCCOCCOCC(=O)O

Experiments:
[1] = target: T1, FAP-expressing human WI-38 fibroblasts (Homo sapiens, UniProt Q12884); test: Competitive FACS binding assay
T1 construct: FAP-expressing human WI-38 fibroblasts (ECACC) were cultured in EMEM; host or cells: WI-38 human fibroblasts
Protocol: Cells were analyzed in an Attune NxT flow cytometer. […] […].
Cells were analyzed in an Attune NxT flow cytometer. […]

[2] = target: Human recombinant FAP (Homo sapiens, UniProt Q12884); test: FRET-based FAP protease activity assay; format: biochemical; parameters: purchased R&D systems 3715-SE
[3] = pIC50 Category (Activity), FRET-based FAP protease activity assay, recombinant human FAP, 37° C.
[4] = pIC50 Category (Activity), FRET-peptide substrate, 37° C.
[5] = pIC50 Category (activity), Recombinant human FAP

T1 sequence (Q12884 whole entry): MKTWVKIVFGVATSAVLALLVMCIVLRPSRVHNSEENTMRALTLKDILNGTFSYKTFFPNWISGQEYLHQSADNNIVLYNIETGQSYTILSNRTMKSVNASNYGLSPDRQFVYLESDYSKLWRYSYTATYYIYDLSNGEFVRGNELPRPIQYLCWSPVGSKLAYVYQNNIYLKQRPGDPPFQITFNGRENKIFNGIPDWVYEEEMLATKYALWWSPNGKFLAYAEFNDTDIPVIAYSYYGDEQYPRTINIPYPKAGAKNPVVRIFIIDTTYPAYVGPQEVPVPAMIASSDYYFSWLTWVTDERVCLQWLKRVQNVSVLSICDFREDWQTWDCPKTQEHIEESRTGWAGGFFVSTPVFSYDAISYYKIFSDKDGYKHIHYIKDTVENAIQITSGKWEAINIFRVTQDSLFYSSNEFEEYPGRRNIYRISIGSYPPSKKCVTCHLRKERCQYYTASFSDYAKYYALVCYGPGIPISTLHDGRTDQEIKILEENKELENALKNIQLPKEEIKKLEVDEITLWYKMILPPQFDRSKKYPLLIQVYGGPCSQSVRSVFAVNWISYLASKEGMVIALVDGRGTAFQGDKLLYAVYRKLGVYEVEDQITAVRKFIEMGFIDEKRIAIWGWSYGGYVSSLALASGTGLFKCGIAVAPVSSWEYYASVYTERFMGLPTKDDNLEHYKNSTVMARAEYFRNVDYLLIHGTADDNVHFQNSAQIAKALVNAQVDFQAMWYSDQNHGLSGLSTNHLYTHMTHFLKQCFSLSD
Sequence of Human recombinant FAP (Q12884 whole entry): as above

Compound	IC50 [1] [nM]	IC50 [2, 3] [nM]	IC50 [2, 4] [nM]	also measured
CCCCCC(=O)N[C@H]1CSCc2cccc(c2)CSC[C@@H](C(N)=O)NC(=O)[C@H](Cc2ccccc2)NC(=O)[C@H](CCC(=O)O)NC(=O)[C@H]([C@@H](C)O)NC(=O)[C@@H]2C[C@@H](O)CN2C(=O)[C@@H]2CCCN2C1=O [3BP-3366, Hex-[Cys(3MeBn)-Pro-Hyp-Thr-Glu-Phe-Cys]-NH2] (Hexanoyl-CP[Hyp]TEFC-NH2; linker 1-7 via mXylylene)	10 to 79.4	10 to 79.4	–	–
CCCC[C@H](NC(=O)CCC(=O)NCCCOCCOCCOCCCNC(=O)CN1CCN(CC(=O)O)CCN(CC(=O)O)CCN(CC(=O)O)CC1)C(=O)N[C@H]1CSCc2cc(CSCCNC(=O)CN3CCN(CC(=O)O)CCN(CC(=O)O)CCN(CC(=O)O)CC3)cc(c2)CSC[C@@H](C(=O)O)NC(=O)[C@H](Cc2ccccc2)NC(=O)[C@H](CCC(N)=O)NC(=O)[C@H]([C@@H](C)O)NC(=O)[C@@H]2CCCN2C(=O)[C@@H]2CCCN2C1=O [3BP-4386, DOTA-Ttds-Nle-[Cys(tMeBn(DOTA-AET))-Pro-Pro-Thr-Gln-Phe-Cys]-OH]	10 to 79.4	–	10 to 79.4	–
C[C@@H](O)[C@@H]1NC(=O)[C@@H]2CCCN2C(=O)[C@@H]2CCCN2C(=O)[C@@H](NC(=O)COCCOCCNC(=O)CN2CCN(CC(=O)O)CCN(CC(=O)O)CCN(CC(=O)O)CC2)CSCc2cccc(c2)CSC[C@@H](C(=O)N[C@@H](CC(=O)O)C(=O)N[C@@H](Cc2c[nH]cn2)C(=O)N(C)[C@@H](Cc2ccccc2)C(=O)N[C@@H](CCCNC(=N)N)C(=O)N[C@@H](CC(=O)O)C(N)=O)NC(=O)[C@H](Cc2ccccc2)NC(=O)[C@H](CCC(=O)O)NC1=O [3BP-3267, DOTA-O2Oc-[Cys(3MeBn)-Pro-Pro-Thr-Glu-Phe-Cys]-Asp-His-Nmf-Arg-Asp-NH2] ({DOTA-AEEA}-CPPTEFCDH[NMeF]RD-NH2; linker 1-7 via mXylylene)	100 to 794	100 to 794	–	–
CCCCCC(=O)N[C@H]1CSCc2cccc(c2)CSC[C@@H](C(N)=O)NC(=O)[C@H](Cc2ccccc2)NC(=O)[C@H](CCC(=O)O)NC(=O)[C@H]([C@@H](C)O)NC(=O)[C@@H]2CC(F)(F)CN2C(=O)[C@@H]2CCCN2C1=O [3BP-3365, Hex-[Cys(3MeBn)-Pro-4Dfp-Thr-Glu-Phe-Cys]-NH2] (Hexanoyl-CP[Pro(4,4-F2)]TEFC-NH2; linker 1-7 via mXylylene)	> 1000	100 to 794	–	–
C=CCOC(=O)N[C@H]1CSCc2cc(CSCCNC(=O)CN3CCN(CC(=O)O)CCN(CC(=O)O)CCN(CC(=O)O)CC3)cc(c2)CSC[C@@H](C(=O)O)NC(=O)[C@H](Cc2ccccc2)NC(=O)[C@H](CCC(N)=O)NC(=O)[C@H]([C@@H](C)O)NC(=O)[C@@H]2CCCN2C(=O)[C@@H]2CCCN2C1=O [3BP-3915, Alloc-[Cys(tMeBn(DOTA-AET))-Pro-Pro-Thr-Gln-Phe-Cys]-OH]	10 to 79.4	–	10 to 79.4	–
CCCC[C@H](NC(=O)CCOCCOCCOCCOCCOCCOCCNC(=O)CN1CCN(C(=O)C(CNCCN)CNCCN)CC1)C(=O)N[C@H]1CSCc2cccc(c2)CSC[C@@H](C(=O)O)NC(=O)[C@H](Cc2ccccc2)NC(=O)[C@H](CCC(=O)O)NC(=O)[C@H]([C@@H](C)O)NC(=O)[C@@H]2CCCN2C(=O)[C@@H]2CCCN2C1=O [3BP-4781, N4Ac-PPAc-PEG6-Nle-[Cys(3MeBn)-Pro-Pro-Thr-Glu-Phe-Cys]-OH] (X2-[X29][PEG6][Nle]CPPTEFC-OH; linker 4-10 via mXylylene)	10 to 79.4	–	–	IC50 [2, 5]: 10 to 79.4 nM
C#CCCC(=O)N[C@H]1CSCc2cc(CSCCNC(=O)CN3CCN(CC(=O)O)CCN(CC(=O)O)CCN(CC(=O)O)CC3)cc(c2)CSC[C@@H](C(=O)O)NC(=O)[C@H](Cc2ccccc2)NC(=O)[C@H](CCC(N)=O)NC(=O)[C@H]([C@@H](C)O)NC(=O)[C@@H]2CCCN2C(=O)[C@@H]2CCCN2C1=O [3BP-3912, Pyn-[Cys(tMeBn(DOTA-AET))-Pro-Pro-Thr-Gln-Phe-Cys]-OH]	10 to 79.4	–	100 to 794	–
C#CCCCC(=O)N[C@H]1CSCc2cc(CSCCNC(=O)CN3CCN(CC(=O)O)CCN(CC(=O)O)CCN(CC(=O)O)CC3)cc(c2)CSC[C@@H](C(=O)O)NC(=O)[C@H](Cc2ccccc2)NC(=O)[C@H](CCC(N)=O)NC(=O)[C@H]([C@@H](C)O)NC(=O)[C@@H]2CCCN2C(=O)[C@@H]2CCCN2C1=O [3BP-3913, Hyn-[Cys(tMeBn(DOTA-AET))-Pro-Pro-Thr-Gln-Phe-Cys]-OH]	10 to 79.4	–	10 to 79.4	–
CCCCCC(=O)N[C@H]1CSCc2cccc(c2)CSC[C@@H](C(N)=O)NC(=O)[C@H](Cc2ccccc2Cl)NC(=O)[C@H](CCC(=O)O)NC(=O)[C@H]([C@@H](C)O)NC(=O)[C@@H]2CCCN2C(=O)[C@@H]2CCCN2C1=O [3BP-3368, Hex-[Cys(3MeBn)-Pro-Pro-Thr-Glu-Ocf-Cys]-NH2] (Hexanoyl-CPPTE[Phe(2-Cl)]C-NH2; linker 1-7 via mXylylene)	100 to 794	10 to 79.4	–	–
CCCC[C@H](NC(=O)[C@H](CCC(=O)NC[C@H](O)[C@@H](O)[C@H](O)[C@H](O)CO)NC(=O)CCC(=O)NCCCOCCOCCOCCCNC(=O)C(CNCCN)CNCCN)C(=O)N[C@H]1CSCc2cccc(c2)CSC[C@@H](C(=O)O)NC(=O)[C@H](Cc2ccccc2)NC(=O)[C@H](CCC(=O)O)NC(=O)[C@H]([C@@H](C)O)NC(=O)[C@@H]2CCCN2C(=O)[C@@H]2CCCN2C1=O [3BP-4231, N4Ac-Ttds-Glu(AGLU′)-Nle-[Cys-(3MeBn)-Pro-Pro-Thr-Glu-Phe-Cys]-OH] ({X3-Suc}-E(NH(1-deoxy-D-glucityl))[Nle]CPPTEFC-OH; linker 3-9 via mXylylene)	> 1000	–	> 1000	–
C[C@@H](O)[C@@H]1NC(=O)[C@@H]2CCCN2C(=O)[C@@H]2CCCN2C(=O)[C@@H](NC(=O)CCCS(N)(=O)=O)CSCc2cccc(c2)CSC[C@@H](C(N)=O)NC(=O)[C@H](Cc2ccccc2)NC(=O)[C@H](CCC(N)=O)NC1=O [3BP-3860, H2NSO2-But-[Cys(3MeBn)-Pro-Pro-Thr-Gln-Phe-Cys]-NH2]	> 1000	> 1000	–	–
CCCCCC(=O)N[C@H]1CSCc2cc(CSCCNC(=O)CCCC(=O)Nc3ccc(C[C@@H](CN(CCN(CC(=O)O)CC(=O)O)CC(=O)O)N(CC(=O)O)CC(=O)O)cc3)cc(c2)CSC[C@@H](C(=O)O)NC(=O)[C@H](Cc2ccccc2)NC(=O)[C@H](CCC(N)=O)NC(=O)[C@H]([C@@H](C)O)NC(=O)[C@@H]2CCCN2C(=O)[C@@H]2CCCN2C1=O [3BP-4366, Hex-[Cys-(tMeBn(DTPABzl-Glutar-AET))-Pro-Pro-Thr-Gln-Phe-Cys]-OH]	100 to 794	–	100 to 794	–
CSCC[C@H](NC(=O)CCC(=O)NCCCOCCOCCOCCCNC(=O)CN1CCN(CC(=O)O)CCN(CC(=O)O)CCN(CC(=O)O)CC1)C(=O)N[C@H]1CSCc2cccc(c2)CSC[C@@H](C(=O)N[C@@H](CC(=O)O)C(=O)N[C@@H](Cc2c[nH]cn2)C(=O)N[C@@H](Cc2ccccc2)C(=O)N[C@@H](CCCNC(=N)N)C(=O)N[C@@H](CC(=O)O)C(N)=O)NC(=O)[C@H](Cc2ccccc2)NC(=O)[C@H](CCC(=O)O)NC(=O)[C@H]([C@@H](C)O)NC(=O)[C@@H]2CCCN2C(=O)[C@@H]2CCCN2C1=O [3BP-3169, DOTA-Ttds-Met-[Cys(3MeBn)-Pro-Pro-Thr-Glu-Phe-Cys]-Asp-His-Phe-Arg-Asp-NH2] ({X12-Suc}-MCPPTEFCDHFRD-NH2; linker 2-8 via mXylylene)	< 10	< 10	–	IC50 ([2]; pIC50 (highest activity categories), text on Table 9 categories (FACS binding and FAP activity assay)): < 10 nM
CCCCCC(=O)N[C@H]1CSCc2cc(CSCCNC(=O)COc3ccc4nc3CN(CC(=O)O)CCN(CC(=O)O)CCN(CC(=O)O)C4)cc(c2)CSC[C@@H](C(=O)O)NC(=O)[C@H](Cc2ccccc2)NC(=O)[C@H](CCC(N)=O)NC(=O)[C@H]([C@@H](C)O)NC(=O)[C@@H]2CCCN2C(=O)[C@@H]2CCCN2C1=O [3BP-5363, Hex-[C(tMeBn(LaAcPCTA-AET))-PPTQFC]-OH]	–	–	–	pIC50 Category (activity) ([2]; Recombinant human FAP): B (category B for pIC50 values between 7.1 and 8.0)
CCCCCC(=O)N[C@H]1CSCc2cc(CSCCNC(=O)CCCCCN3C(=CC=CC=CC4=[N+](CCCCS(=O)(=O)[O-])c5ccccc5C4(C)C)C(C)(C)c4ccccc43)cc(c2)CSC[C@@H](C(=O)O)NC(=O)[C@H](Cc2ccccc2)NC(=O)[C@H](CCC(N)=O)NC(=O)[C@H]([C@@H](C)O)NC(=O)[C@@H]2CCCN2C(=O)[C@@H]2CCCN2C1=O [3BP-3694, Hex-[Cys(tMeBn(Cy5SO3-AET))-Pro-Pro-Thr-Gln-Phe-Cys]-OH]	–	100 to 794	–	–
CCCCCC(=O)N[C@H]1CSCc2cc(cc(CN3CCN(C(=O)CCCCCN4C(=CC=CC=CC5=[N+](CCCCS(=O)(=O)[O-])c6ccccc6C5(C)C)C(C)(C)c5ccccc54)CC3)c2)CSC[C@@H](C(=O)N[C@@H](CC(=O)O)C(N)=O)NC(=O)[C@H](Cc2ccccc2)NC(=O)[C@H](CCC(N)=O)NC(=O)[C@H]([C@@H](C)O)NC(=O)[C@@H]2CCCN2C(=O)[C@@H]2CCCN2C1=O [3BP-3693, Hex-[Cys(tMeBn(Cy5SO3-PP))-Pro-Pro-Thr-Gln-Phe-Cys]-Asp-NH2] (Hexanoyl-CPPTQFCD-NH2; linker 1-7 via X35)	–	10 to 79.4	–	–
CCCCCC(=O)N[C@H]1CSCc2cc(CSCCNC(=O)CN3CCN(CC(N)=O)CCN(CC(N)=O)CCN(CC(N)=O)CC3)cc(c2)CSCC(C(=O)O)NC(=O)[C@H](Cc2ccccc2)NC(=O)[C@H](CCC(N)=O)NC(=O)[C@H]([C@@H](C)O)NC(=O)[C@@H]2CCCN2C(=O)[C@@H]2CCCN2C1=O (stereo partly drawn) [3BP-5323, Hex-[Cys(tMeBn(DOTAM-AET))-Pro-Pro-Thr-Gln-Phe-Cys]-OH]	–	–	–	IC50 [2, 5]: < 10 nM
